Our source for the Activity values is ChEMBL document CHEMBL4334471, “Discovery of 1,8-disubstituted-[1,2,3]triazolo[4,5-c]quinoline derivatives as a new class of Hippo signaling pathway inhibitors” (Bioorg Med Chem Lett, 2019).

SMILES strings stand for the structures.

Test [1] concerns Proto-oncogene tyrosine-protein kinase receptor Ret (Homo sapiens), P07949 [V804L]. Nature of the test: Inhibition of recombinant human Ret V804L mutant (658 to end residues) assessed as residual activity at 10 uM using KKKSPGEYVNIEFG as substrate incubated for 40 mins in presence of [gamma33P]ATP by scintillation counting based radiometry assay relative to control.
The target of test [2] is Serine/threonine-protein kinase 32B (Homo sapiens) (UniProt Q9NY57). As to the kind of experiment: Inhibition of recombinant human full length STK32B assessed as residual activity at 10 uM using casein as substrate incubated for 40 mins in presence of [gamma33P]ATP by scintillation counting based radiometry assay relative to control.
Test [3] deals with Myotonin-protein kinase (Homo sapiens) (UniProt Q09013). As to the kind of experiment: Inhibition of recombinant human DMPK (1 to 549 residues) assessed as residual activity at 10 uM using KKSRGDYMTMQIG as substrate at 40 mins in presence of [gamma-33ATP] by scintillation counting based radiometry assay relative to control.
The target in test [4] is Mitogen-activated protein kinase 12 (Homo sapiens) (UniProt P53778). Nature of the test: Inhibition of recombinant human full length SAPK3 assessed as residual activity at 10 uM using myelin basic protein as substrate incubated for 40 mins in presence of [gamma33P]ATP by scintillation counting based radiometry assay relative to control.
In test [5] the test system is Tyrosine-protein kinase ABL1 (Homo sapiens), P00519 [H396P]. Nature of the test: Inhibition of human ABL1 H396P mutant (27 to end residues) assessed as residual activity at 10 uM using EAIYAAPFAKKK as substrate incubated for 40 mins in presence of [gamma-33ATP] by scintillation counting based radiometry assay relative to control.
Test [6] addresses cGMP-dependent protein kinase 2 (Homo sapiens) (UniProt Q13237). As to the kind of experiment: Inhibition of recombinant full-length human PRKG2 assessed as residual activity at 10 uM using KKLRRTLSFAEPG as substrate incubated for 40 mins in presence of [gamma33P]ATP by scintillation counting based radiometry assay relative to control.
Test [7] has as its target Serine/threonine-protein kinase DCLK2 (Homo sapiens) (UniProt Q8N568). Nature of the test: Inhibition of recombinant human DCAMKL2 (376 to end residues) assessed as residual activity at 10 uM using KKLNRTLSFAEPG as substrate at 40 mins in presence of [gamma-33ATP] by scintillation counting based radiometry assay relative to control.
The species entered for test [8] is Homo sapiens. Nature of the test: Inhibition of recombinant human MAPKAPK2 A399G mutant (46 to end residues) assessed as residual activity at 10 uM using KKLNRTLSVA as substrate incubated for 40 mins in presence of [gamma-33ATP by scintillation counting based radiometry assay relative to control.
The subject of test [9] is Serine/threonine-protein kinase Sgk2 (Homo sapiens), Q9HBY8 [S416D]. As to the kind of experiment: Inhibition of recombinant human SGK2 S416D mutant (54 to end residues) assessed as residual activity at 10 uM using GRPRTSSFAEGKK as substrate incubated for 40 mins in presence of [gamma33P]ATP by scintillation counting based radiometry assay relative to control.
Test [10] relates to PI3-kinase p110-alpha/p85-alpha (Homo sapiens), P27986+P42336 [E545K]. As to the kind of experiment: Inhibition of recombinant full-length human PI3K p110/p85 E545K mutant assessed as residual activity at 10 uM using phosphatidylinositol-4, 5-bisphosphate as substrate incubated for 40 mins in presence of [gamma33P]ATP by scintillation counting based radiometry assay relative to control.

For test [11], the target named is Serine/threonine-protein kinase mTOR (Homo sapiens) (UniProt P42345). As to the kind of experiment: Inhibition of recombinant full length human mTOR assessed as residual activity at 10 uM measured after 40 mins in presence of [gamma33P]ATP by scintillation counting based radiometry assay relative to control.
For test [12], the species on record is Homo sapiens. As to the kind of experiment: Inhibition of recombinant human Plk4 S34T mutant (1 to 273 residues) assessed as residual activity at 10 uM using casein as substrate incubated for 40 mins in presence of [gamma33P]ATP by scintillation counting based radiometry assay relative to control.
Test [13] concerns the target Serine/threonine-protein kinase 33 (Homo sapiens) (UniProt Q9BYT3). Nature of the test: Inhibition of recombinant full-length human STK33 assessed as residual activity at 10 uM using myelin basic protein as substrate incubated for 40 mins in presence of [gamma33P]ATP by scintillation counting based radiometry assay relative to control.
Test [14] concerns the target Serine/threonine-protein kinase MRCK gamma (Homo sapiens) (UniProt Q6DT37). Nature of the test: Inhibition of recombinant human MRCKgamma assessed as residual activity at 10 uM using KKRNRTLTV as substrate incubated for 40 mins in presence of [gamma-33ATP by scintillation counting based radiometry assay relative to control.
The target in test [15] is Protein kinase C theta type (Homo sapiens) (UniProt Q04759). As to the kind of experiment: Inhibition of recombinant full length human PKCtheta assessed as residual activity at 10 uM using histone H1 as substrate incubated for 40 mins in presence of [gamma33P]ATP by scintillation counting based radiometry assay relative to control.
Test [16] concerns Fungi. Nature of the test: Inhibition of recombinant fungi CK1 (2 to 298 residues) assessed as residual activity at 10 uM using KRRRALS(p)VASLPGL as substrate incubated for 40 mins in presence of [gamma-33ATP] by scintillation counting based radiometry assay relative to control.
Test [17] addresses MAP/microtubule affinity-regulating kinase 4 (Homo sapiens) (UniProt Q96L34). Nature of the test: Inhibition of recombinant full length human MARK4 assessed as residual activity at 10 uM using KKKVSRSGLYRSPSMPENLNRPR as substrate incubated for 40 mins in presence of [gamma-33ATP by scintillation counting based radiometry assay relative to control.
The target of test [18] is Homeodomain-interacting protein kinase 2 (Homo sapiens) (UniProt Q9H2X6). Nature of the test: Inhibition of human HIPK2 (165 to 564 residues) assessed as residual activity at 10 uM using myelin basic protein as substrate after 40 mins by [gamma-33ATP] radiometric assay relative to control.
Test [19] deals with Tyrosine-protein kinase Fer (Homo sapiens) (UniProt P16591). Nature of the test: Inhibition of recombinant human FER (541 to end residues) assessed as residual activity at 10 uM using KKKSPGEYVNIEF as substrate at 40 mins in presence of [gamma-33ATP] by scintillation counting based radiometry assay relative to control.
Test [20] concerns the target Serine/threonine-protein kinase Nek3 (Homo sapiens) (UniProt P51956). As to the kind of experiment: Inhibition of recombinant full-length human NEK3 assessed as residual activity at 10 uM using myelin basic protein as substrate measured after 40 mins in presence of [gamma33P]ATP by scintillation counting based radiometry assay relative to control.
Test [21] addresses Serine/threonine-protein kinase PAK 4 (Homo sapiens) (UniProt O96013). Nature of the test: Inhibition of recombinant human PAK4 (295 to end residues) assessed as residual activity at 10 uM using myelin basic protein as substrate measured after 40 mins in presence of [gamma33P]ATP by scintillation counting based radiometry assay relative to control.

Chain of Tyrosine-protein kinase Fer (Homo sapiens) (P16591 whole entry, looked up): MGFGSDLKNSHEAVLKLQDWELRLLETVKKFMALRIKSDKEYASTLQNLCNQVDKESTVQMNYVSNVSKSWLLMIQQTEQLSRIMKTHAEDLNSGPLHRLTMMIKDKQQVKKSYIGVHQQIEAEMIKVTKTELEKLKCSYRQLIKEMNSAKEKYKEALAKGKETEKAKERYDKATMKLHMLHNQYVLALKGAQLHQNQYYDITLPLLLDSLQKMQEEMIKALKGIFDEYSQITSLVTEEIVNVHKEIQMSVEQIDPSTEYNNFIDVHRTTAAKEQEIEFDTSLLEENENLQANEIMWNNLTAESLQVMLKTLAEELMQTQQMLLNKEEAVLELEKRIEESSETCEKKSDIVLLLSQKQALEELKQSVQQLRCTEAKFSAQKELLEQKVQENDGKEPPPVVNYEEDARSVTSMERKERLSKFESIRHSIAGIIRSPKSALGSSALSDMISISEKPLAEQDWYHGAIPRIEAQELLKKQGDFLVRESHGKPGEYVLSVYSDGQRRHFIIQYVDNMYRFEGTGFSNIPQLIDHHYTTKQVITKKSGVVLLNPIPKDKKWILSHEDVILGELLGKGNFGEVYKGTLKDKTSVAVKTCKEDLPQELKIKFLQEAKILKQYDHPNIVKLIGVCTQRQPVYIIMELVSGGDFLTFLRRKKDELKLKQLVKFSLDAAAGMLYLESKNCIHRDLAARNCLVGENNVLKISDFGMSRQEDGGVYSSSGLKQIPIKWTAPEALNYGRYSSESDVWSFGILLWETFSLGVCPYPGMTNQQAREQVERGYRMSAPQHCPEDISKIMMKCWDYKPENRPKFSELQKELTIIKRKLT
Chain of cGMP-dependent protein kinase 2 (Homo sapiens) (Q13237 whole entry): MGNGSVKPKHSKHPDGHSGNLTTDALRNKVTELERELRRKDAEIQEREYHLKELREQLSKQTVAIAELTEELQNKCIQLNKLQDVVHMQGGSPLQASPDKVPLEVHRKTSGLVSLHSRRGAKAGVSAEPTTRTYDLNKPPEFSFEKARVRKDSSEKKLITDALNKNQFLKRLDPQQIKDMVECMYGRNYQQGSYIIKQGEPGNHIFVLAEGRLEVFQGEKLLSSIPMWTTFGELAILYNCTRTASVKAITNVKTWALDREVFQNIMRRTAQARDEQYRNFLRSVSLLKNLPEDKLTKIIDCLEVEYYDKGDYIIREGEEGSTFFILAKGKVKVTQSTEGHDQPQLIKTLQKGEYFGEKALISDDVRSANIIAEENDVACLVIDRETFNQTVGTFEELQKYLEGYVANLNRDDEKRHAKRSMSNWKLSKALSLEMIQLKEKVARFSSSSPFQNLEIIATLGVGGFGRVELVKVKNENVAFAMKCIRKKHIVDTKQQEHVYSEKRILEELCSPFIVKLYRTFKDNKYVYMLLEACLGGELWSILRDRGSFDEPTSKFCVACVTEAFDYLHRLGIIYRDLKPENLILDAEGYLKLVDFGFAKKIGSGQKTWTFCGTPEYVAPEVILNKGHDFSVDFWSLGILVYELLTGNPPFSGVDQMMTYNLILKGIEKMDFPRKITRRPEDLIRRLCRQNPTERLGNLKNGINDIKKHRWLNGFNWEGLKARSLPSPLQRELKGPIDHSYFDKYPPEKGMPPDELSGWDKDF
Chain of Serine/threonine-protein kinase Sgk2 (Homo sapiens), Q9HBY8 [S416D] (Q9HBY8 1-367 with tags or gaps S416D): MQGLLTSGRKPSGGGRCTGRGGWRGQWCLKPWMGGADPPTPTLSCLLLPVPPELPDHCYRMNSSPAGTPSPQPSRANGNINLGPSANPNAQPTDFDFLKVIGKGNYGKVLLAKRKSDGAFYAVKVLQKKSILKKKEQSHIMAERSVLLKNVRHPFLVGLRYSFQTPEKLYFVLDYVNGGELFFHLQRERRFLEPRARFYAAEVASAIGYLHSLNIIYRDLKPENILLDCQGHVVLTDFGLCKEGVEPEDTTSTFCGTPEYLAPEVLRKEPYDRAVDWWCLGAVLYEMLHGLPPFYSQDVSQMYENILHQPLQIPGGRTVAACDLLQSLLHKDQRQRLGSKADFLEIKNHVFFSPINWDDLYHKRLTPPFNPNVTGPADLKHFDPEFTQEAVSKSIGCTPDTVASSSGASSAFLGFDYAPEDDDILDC
Chain of MAP/microtubule affinity-regulating kinase 4 (Homo sapiens) (Q96L34 whole entry, the tested form may be a part): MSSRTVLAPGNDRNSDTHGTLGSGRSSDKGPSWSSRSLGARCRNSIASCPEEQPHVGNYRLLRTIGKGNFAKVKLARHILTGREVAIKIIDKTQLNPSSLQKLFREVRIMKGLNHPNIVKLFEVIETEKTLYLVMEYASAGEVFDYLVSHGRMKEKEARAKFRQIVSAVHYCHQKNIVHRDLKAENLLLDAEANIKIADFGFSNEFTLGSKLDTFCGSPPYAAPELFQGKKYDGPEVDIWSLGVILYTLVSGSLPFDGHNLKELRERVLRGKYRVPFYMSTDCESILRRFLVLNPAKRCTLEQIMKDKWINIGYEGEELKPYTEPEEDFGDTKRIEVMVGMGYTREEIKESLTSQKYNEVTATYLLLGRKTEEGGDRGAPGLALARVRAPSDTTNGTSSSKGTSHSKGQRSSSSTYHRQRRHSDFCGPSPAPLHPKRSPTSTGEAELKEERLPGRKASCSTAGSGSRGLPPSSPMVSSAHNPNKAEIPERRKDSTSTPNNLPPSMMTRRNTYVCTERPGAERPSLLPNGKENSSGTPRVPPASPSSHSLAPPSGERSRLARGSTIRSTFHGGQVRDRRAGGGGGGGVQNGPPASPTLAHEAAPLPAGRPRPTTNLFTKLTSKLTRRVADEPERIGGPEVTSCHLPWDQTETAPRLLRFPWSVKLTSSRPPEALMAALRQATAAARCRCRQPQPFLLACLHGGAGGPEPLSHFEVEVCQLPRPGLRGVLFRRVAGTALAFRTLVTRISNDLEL
Chain of Protein kinase C theta type (Homo sapiens) (Q04759 whole entry, looked up, the tested form may be a part): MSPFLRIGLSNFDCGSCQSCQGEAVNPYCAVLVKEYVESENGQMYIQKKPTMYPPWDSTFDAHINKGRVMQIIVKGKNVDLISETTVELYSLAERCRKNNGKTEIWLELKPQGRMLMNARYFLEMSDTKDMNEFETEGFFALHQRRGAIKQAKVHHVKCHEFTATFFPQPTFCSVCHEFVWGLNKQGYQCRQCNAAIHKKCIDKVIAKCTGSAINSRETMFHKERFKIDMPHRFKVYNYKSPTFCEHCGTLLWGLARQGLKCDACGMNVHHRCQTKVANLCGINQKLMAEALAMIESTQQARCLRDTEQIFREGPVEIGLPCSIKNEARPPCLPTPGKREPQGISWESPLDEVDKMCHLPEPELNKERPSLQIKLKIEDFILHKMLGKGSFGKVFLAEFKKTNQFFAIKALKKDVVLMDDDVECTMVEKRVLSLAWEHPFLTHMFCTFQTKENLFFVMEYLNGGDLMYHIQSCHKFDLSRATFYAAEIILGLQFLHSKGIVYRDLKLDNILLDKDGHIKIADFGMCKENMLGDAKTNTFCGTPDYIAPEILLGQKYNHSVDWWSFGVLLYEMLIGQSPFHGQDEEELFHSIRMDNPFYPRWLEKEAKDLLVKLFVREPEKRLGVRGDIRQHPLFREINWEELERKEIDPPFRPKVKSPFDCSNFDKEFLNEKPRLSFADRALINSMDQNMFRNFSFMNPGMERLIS
Chain of Serine/threonine-protein kinase MRCK gamma (Homo sapiens) (Q6DT37 whole entry): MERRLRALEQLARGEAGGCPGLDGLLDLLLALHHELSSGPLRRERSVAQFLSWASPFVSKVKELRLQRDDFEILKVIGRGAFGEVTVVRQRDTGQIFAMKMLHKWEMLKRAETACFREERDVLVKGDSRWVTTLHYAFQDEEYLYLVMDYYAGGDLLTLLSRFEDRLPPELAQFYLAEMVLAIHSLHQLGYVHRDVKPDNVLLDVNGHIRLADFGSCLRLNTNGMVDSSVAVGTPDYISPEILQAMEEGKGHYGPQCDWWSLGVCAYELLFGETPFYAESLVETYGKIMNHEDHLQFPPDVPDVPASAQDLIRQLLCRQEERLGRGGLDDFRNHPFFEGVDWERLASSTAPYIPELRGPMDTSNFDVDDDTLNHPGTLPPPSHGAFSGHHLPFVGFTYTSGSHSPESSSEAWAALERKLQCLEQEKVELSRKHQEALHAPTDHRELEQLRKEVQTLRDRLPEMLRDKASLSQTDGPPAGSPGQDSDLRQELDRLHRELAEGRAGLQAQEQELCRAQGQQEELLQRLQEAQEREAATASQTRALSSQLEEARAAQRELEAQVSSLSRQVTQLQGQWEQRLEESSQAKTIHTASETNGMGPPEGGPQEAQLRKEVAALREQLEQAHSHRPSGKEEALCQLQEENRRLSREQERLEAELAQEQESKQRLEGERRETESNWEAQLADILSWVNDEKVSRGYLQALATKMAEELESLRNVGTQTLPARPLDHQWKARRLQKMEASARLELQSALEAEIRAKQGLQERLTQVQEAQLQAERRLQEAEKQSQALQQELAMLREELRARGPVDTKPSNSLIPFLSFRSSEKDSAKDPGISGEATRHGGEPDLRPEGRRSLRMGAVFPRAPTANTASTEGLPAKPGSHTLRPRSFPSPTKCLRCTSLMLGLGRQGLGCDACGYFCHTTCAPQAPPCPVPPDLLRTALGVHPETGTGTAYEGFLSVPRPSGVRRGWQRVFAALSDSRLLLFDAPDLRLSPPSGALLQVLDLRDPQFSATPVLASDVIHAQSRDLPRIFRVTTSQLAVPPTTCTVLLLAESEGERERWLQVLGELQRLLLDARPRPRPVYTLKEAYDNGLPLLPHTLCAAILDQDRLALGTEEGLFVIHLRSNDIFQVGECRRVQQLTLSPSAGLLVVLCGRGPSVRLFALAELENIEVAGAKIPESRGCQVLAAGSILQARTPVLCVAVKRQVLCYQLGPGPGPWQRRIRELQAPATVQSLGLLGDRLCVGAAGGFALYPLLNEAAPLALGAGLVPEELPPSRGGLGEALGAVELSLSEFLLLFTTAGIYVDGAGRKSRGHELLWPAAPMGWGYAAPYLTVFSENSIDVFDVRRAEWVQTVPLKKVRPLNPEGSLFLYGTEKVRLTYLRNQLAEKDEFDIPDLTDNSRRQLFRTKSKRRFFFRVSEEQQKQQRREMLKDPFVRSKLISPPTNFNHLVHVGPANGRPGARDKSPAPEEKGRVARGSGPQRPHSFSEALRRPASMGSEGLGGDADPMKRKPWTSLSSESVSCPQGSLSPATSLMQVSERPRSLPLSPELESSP

Regarding `C[C@@H](c1ccccc1)n1nnc2cnc3ccc(-c4cnc5[nH]ccc5c4)cc3c21`, the Activity in test [1] is 90%; in [2], 88%; in [3], 89%; in test [4] it was 91%; in test [5], -1%; in test [6] it was 52%. The Activity is 61% in [7]; 67% in test [8]; 36% in test [9]; 2% in [10]; -7% in [11]; 82% in test [12]. In addition, the Activity in [13] was found to be 91%; in [14], 67%; in [15], 70%; in test [16] it was 37%; in [17], 89%; in [18] it was 93%. Moreover, the Activity in test [19] was found to be 83%; in test [20], 73%; in [21], 88%.
